The subject of one data set is guinea-pig left atrium muscle. Put plainly: Effects of compound on the functional refractory period in guinea-pig left atrium muscle. The settings on record: isolated atrium muscle, stimulated at 1 Hz, compound added cumulatively, 15 minutes per concentration, 36±1° C. The text has this: Effects of compound on the functional refractory period in guinea-pig left atrium muscle and right ventricular papillary muscle
Hearts were removed from guinea-pigs, and left atrium muscle or right ventricular papillary muscle were isolated therefrom in a Krebs-Henseleit solution aerated with 95% O2+5% CO2. The samples were stimulated electrically at a rate of 1 Hz and a voltage of 1.5 times of the threshold value reacted to stimulation (basic stimulation; S1) by using an electric stimulating apparatus. The contraction occurred at that time was recorded by a thermal stylus recorder via a FD pickup and a strain pressure amplifier. The functional refractory period is defined as the shortest time interval between S1 resulting from determinable contraction and an extra stimulation (S2). The time interval between S1 and S2 in the left atrium muscle sample was started from 150 msec, decreased in 10 msec steps until 100 msec, and thereafter 5 msec steps to the functional refractory period. For the right ventricular papillary muscle sample, it was started from 300 msec and decreased in 10 msec steps until the functional refractory period. Herein, S2 was set at twice of the threshold value which reacted to stimulation. The experimental temperature was 36±1° C. […] After determining the basic value before addition of the compound, the compound was added cumulatively, incubated for 15 minutes for respective concentration, and thereafter the functional refractory period was determined.
Consider `CC(=O)Nc1cc2c(cc1[N+](=O)[O-])OC(C)(C)[C@H](O)[C@H]2NCCc1ccccc1` [compound 1], for which the “Prolongation effect on FRP EC20” value came out at 6.1 µM.

As to `CC(=O)Nc1cc2c(cc1[N+](=O)[O-])OC(C)(C)[C@H](O)[C@H]2NCCc1ccc([N+](=O)[O-])cc1` [compound 8], the “Prolongation effect on FRP EC20” value came to 1.8 µM.

For the compound `CC(=O)Nc1cc2c(cc1[N+](=O)[O-])OC(C)(C)[C@H](O)[C@H]2NCCCCc1ccccc1` [compound 3], the “Prolongation effect on FRP EC20” value is 4.0 µM.

In the case of `CC(=O)Nc1cc2c(cc1[N+](=O)[O-])OC(C)(C)[C@H](O)[C@H]2NCCc1ccc(Cl)cc1` [compound 6], the “Prolongation effect on FRP EC20” value was found to be 1.4 µM.

As for `COc1ccc(CCN[C@H]2c3cc(NC(C)=O)c([N+](=O)[O-])cc3OC(C)(C)[C@@H]2O)cc1` [compound 5], the “Prolongation effect on FRP EC20” value stood at 5.5 µM.

Take `CC(=O)Nc1cc2c(cc1[N+](=O)[O-])OC(C)(C)[C@H](O)[C@H]2NCCc1ccc(O)cc1` [compound 4]: the “Prolongation effect on FRP EC20” value was determined as 5.0 µM.

Tested on in another data set: not given
Test: not given
Conditions: not given
Regarding `CC(=O)Nc1cc2c(cc1[N+](=O)[O-])OC(C)(C)[C@H](O)[C@H]2NCCc1ccc([N+](=O)[O-])cc1` (stereo in doubt), the melting point (in general, the temperature of the solid-liquid transition) was 211 to 213 °C (dec.).

For the origin of these results see patent US6589983B1, “Benzopyran derivative” (Nissan Chemical Industries, Ltd., priority 1999, dated 2003).
